“And” between values parts separate entries of the source, which are not always exact repeats. Equal entries are not always repeated. Where two headings read alike, the source gives them in different places.
Legend:
LRRK2 G2019S [1] = biological target: T1, LRRK2 G2019S (Homo sapiens, UniProt Q5S007, G2019S); assay: TR-FRET cellular assay for LRRK2 Ser935 phosphorylation, SH-SY5Y cells, BacMam LRRK2-GFP G2019S (incl. Tocriscreen Mini library screen and follow-up); format: cell-based; set-up: This high-throughput assay utilizes cells expressing full-length human LRRK2 with a C-terminal GFP tag (LRRK2-GFP); host or cells: SH-SY5Y cells transduced with BacMam; conditions: for %Inhibition Initial screen / dephosphorylation of Ser935 in library screen: 20 µM; for Cellular TR-FRET Assay Max % Inhibition / IC50: dose-response follow-up; for Cellular TR-FRET Assay Max % Inhibition: 90 min; for IC50: three independent experiments, read-out: Cellular TR-FRET Assay IC50 +/-SD; for dephosphorylation of Ser935 in library screen: Tocriscreen library
T1 sequence (Q5S007 whole entry G2019S): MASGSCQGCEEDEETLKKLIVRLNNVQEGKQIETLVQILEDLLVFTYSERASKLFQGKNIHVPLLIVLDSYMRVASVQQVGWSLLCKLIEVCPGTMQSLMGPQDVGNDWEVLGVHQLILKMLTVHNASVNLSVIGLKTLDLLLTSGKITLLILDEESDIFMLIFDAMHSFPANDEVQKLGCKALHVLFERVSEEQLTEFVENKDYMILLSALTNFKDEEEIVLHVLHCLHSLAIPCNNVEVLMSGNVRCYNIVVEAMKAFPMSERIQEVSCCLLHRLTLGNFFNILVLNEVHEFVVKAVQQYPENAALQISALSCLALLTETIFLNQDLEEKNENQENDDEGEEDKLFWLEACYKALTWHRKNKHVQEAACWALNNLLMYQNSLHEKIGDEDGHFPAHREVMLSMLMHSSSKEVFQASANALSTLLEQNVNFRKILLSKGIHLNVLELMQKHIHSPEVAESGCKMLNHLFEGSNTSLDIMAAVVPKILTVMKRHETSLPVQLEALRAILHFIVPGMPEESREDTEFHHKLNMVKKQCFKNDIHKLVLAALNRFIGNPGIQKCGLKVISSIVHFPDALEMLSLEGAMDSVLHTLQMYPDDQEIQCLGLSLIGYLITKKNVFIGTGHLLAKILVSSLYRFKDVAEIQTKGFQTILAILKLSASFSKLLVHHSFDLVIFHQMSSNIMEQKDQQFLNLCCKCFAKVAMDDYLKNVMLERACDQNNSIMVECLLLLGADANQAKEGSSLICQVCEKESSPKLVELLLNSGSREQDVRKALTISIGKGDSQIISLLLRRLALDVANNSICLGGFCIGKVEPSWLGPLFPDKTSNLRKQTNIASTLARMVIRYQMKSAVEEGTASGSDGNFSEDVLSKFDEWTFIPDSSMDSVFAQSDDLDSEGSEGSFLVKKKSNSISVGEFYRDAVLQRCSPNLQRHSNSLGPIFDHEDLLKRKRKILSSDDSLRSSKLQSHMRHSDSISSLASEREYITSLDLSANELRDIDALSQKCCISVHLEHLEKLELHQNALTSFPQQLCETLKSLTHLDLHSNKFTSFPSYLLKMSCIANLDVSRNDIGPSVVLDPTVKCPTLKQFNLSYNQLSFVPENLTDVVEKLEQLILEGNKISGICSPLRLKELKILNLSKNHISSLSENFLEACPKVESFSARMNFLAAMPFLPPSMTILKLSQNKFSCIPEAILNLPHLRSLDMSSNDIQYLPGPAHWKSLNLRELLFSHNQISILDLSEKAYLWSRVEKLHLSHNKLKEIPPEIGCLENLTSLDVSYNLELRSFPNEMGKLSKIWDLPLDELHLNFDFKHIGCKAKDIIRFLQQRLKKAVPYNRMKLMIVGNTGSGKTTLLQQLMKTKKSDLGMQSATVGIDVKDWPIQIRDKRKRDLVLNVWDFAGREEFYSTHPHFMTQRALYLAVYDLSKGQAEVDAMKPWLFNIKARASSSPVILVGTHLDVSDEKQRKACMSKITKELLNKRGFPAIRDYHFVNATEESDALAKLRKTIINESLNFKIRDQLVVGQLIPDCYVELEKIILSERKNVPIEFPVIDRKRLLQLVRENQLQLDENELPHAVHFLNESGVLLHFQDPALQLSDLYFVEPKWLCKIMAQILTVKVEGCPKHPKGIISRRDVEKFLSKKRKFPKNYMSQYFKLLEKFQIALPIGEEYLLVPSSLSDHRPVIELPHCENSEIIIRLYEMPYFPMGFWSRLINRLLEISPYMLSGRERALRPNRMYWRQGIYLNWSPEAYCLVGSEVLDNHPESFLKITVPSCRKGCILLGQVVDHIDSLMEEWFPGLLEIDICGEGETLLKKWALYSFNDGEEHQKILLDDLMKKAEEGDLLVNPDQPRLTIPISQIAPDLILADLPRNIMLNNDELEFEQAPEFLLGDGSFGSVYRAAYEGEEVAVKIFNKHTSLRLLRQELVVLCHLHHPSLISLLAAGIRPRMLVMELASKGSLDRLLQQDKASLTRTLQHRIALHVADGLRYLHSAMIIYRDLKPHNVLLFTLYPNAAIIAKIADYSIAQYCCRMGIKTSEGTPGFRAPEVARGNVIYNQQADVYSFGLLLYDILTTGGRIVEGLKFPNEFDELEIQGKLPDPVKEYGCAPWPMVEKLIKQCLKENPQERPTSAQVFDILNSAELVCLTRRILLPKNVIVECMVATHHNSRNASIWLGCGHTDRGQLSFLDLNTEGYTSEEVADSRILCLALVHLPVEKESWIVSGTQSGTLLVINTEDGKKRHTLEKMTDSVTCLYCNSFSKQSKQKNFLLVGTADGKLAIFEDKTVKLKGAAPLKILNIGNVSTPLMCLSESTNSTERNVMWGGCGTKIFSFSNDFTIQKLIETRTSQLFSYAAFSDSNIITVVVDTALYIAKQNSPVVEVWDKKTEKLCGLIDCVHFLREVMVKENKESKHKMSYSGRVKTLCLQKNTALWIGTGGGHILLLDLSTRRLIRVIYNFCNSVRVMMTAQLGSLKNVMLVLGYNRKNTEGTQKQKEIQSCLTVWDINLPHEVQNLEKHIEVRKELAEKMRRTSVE
Procedure: U-2 OS cells are maintained in growth medium (McCoy’s 5A supplemented with 10% dialyzed FBS (dFBS), 10 mM HEPES, 0.1 mM NEAA, 1 mM Sodium Pyruvate, and 100 U/mL Penicillin/100 µg/mL Streptomycin). HEK293T cells are maintained in DMEM with 10% dFBS, 10 mM HEPES, 0.1 mM NEAA and 100 U/mL Penicillin/100 µg/mL Streptomycin. SH-SY5Y cells are maintained in DMEM/F-12 medium supplemented with 10% dFBS and 100 U/mL Penicillin/100 µg/mL Streptomycin. […] GIBCO® human neural stem cells (hNSCs) were propagated as an adherent culture in StemPro® NSC SFM according to the manufacturer’s recommended protocol (Life Technologies). For BacMam transduction of U-2 OS and HEK293T, cells were harvested, mixed with various amounts of BacMam LRRK2-GFP reagent (v/v) and plated onto 6-well plates. […] Cells were assayed in 384-well format (∼20,000 cells/well) 48 hours post-transduction as above.
Transduced cells in the 384-well assay plate were incubated with indicated inhibitors (5X, 5 µL/well) for 60 to 90 minutes. During this time, 6 X lysis buffer (Life Technologies) was supplemented with 30 nM Tb-labeled anti-LRRK2 pSer935 antibody and both protease and phosphatase inhibitor cocktails (Sigma). The complete 6 X lysis buffer was added to each well (5 µL/well) and the plates were incubated at room temperature in the dark for 2 hours. […] A sigmoidal dose-response equation with varying slope was used to fit the data and generate IC50 values. Z′-factor values were calculated as: Z′-factor = 1 - [(3 × stdevno virus +3 × stdevmaxvirus)/(avgmaxvirus – avgno-virus)]. The IC50 values reported in Table 1 are the averaged numbers from three independent experiments.
40 nL of 10 mM Tocris library compounds in DMSO were dispensed into each well of the assay plate by the ECHO system. Equal volumes of DMSO were dispensed into the control wells. Cells were incubated with compounds for 90 to 120 min prior to cell lysis and detection as described above. The percent inhibition is calculated as: [(average emission ratios of DMSO control wells – average emission ratios of compound wells)/(average emission ratios of DMSO control wells – average emission ratios of LRRK2-IN-1 treated wells)] * 100. For the dose-response follow-up studies, fresh compound DMSO stock solutions were prepared from powder. […] Z′-factor value was calculated as: Z′-factor = 1 - [(3 × stdevLRRK2-IN-1+3 × stdevDMSO)/(avgDMSO – avgLRRK2-IN-1)]. The IC50 values reported in Table 2 are the averaged numbers from three independent experiments for both cellular and biochemical TR-FRET assays and one representative result of two independent experiments for the cytotoxicity assay.

[2] = tested on: SH-SY5Y cells expressing LRRK2-GFP G2019S
[3] = tested on: SH-SY5Y cells expressing LRRK2-GFP G2019S; assay: Cytotoxicity assay (resazurin-based cell viability); conditions: read-out: Cytotoxicity Assay IC50; same conditions as TR-FRET follow-up; one representative of two experiments
GFP-LRRK2 G2019S = biological target: T2, GFP-LRRK2 G2019S (Homo sapiens, UniProt Q5S007, G2019S); assay: Immunoprecipitation/Western analysis of LRRK2 phosphorylation at Ser910, Ser935, Ser955, Ser973 in HEK293 T-REx GFP-LRRK2 G2019S cells; format: cell-based; conditions: for effect on phosphorylation of Ser910, Ser935, Ser955 and Ser973 (IP-Western): 20 µM, 90 min, HEK293 GFP-LRRK2 G2019S, Figure 6
T2 construct: expressed in transfected cells
T2 sequence (Q5S007 whole entry G2019S): as above
Procedure: (§1) Immunoblot analysis: BacMam LRRK2-GFP transduced U-2 OS or SH-SY5Y cells (10^7 cells) were left untreated or treated with 3 µM LRRK2-IN-I for 90 min. For lysate preparation, the cells were washed once with ice-cold PBS and lysed by addition of ice-cold lysis buffer (20 mM Tris-HCl, pH 7.4, 1% NP-40, 5 mM EDTA, 5 mM NaF, 150 mM NaCl, and 1∶100 of protease and phosphatase inhibitor cocktails). The lysate was cleared of debris by centrifugation. Equal amount of total protein was loaded onto each lane for SDS-PAGE (3–8% Tris Acetate). The proteins were transferred onto nitrocellulose membrane using the iBLOT® dry blotting system (Life Technologies) according to manufacturer’s protocol. The membranes were blocked and incubated with a primary antibody against LRRK2 (Cell Signaling Technologies), followed by incubation with alkaline phosphatase-conjugated secondary antibody (WesternBreeze® chromogenic Kit, Life Technologies). The blot was developed by using the chromogenic BCIP/NBT substrate (WesternBreeze® chromogenic Kit, Life Technologies). […] Two days post induction, cells were treated for 90 minutes in the presence of 20 µM of compound or DMSO vehicle control. Cells were rapidly lysed in ice cold lysis buffer 50 mM Tris/HCl, pH 7.5, 1 mM EGTA, 1 mM EDTA, […] 1 mM sodium orthovanadate, 10 mM sodium beta-glycerolphosphate, 50 mM NaF, 5 mM sodium pyrophosphate, 0.27 M sucrose, 1 mM benzamidine and 2 mM phenylmethanesulphonylfluoride (PMSF) and one tablet each complete protease inhibitor and PhosSTOP phosphatase inhibitor (Roche) and was supplemented with 1% (v/v) Triton X-100. GFP-LRRK2 was immunoprecipitated with GFP nanotrap beads (ChromoTek). Immunecomplexes were washed twice with lysis buffer supplemented with 300 mM NaCl and once with Buffer A (50 mM Tris/HCl, pH 7.5, 50 mM NaCl, 0.1 mM EGTA and 0.1% (v/v) 2-mercaptoethanol, and 0.27 M sucrose).

LRRK2 G2019S [4] = biological target: T1, LRRK2 G2019S; assay: In vitro biochemical LRRK2 TR-FRET activity assay; conditions: for IC50: LRRK2 G2019S, ATP 134 µM (Km,app), LRRKtide substrate, three independent experiments, read-out: Biochemical LRRK2 assay IC50 +/- SD; for effect on LRRK2 activity in vitro: result in words
Procedure: The Biochemical LRRK2 TR-FRET activity assay was performed according to the manufacture recommended assay protocol (Life Technologies). […] After incubation at room temperature for 1 hour, the kinase reactions were stopped by addition of 10 µL of 20 mM EDTA and 4 nM Tb-anti-pERM (pLRRKtide) antibody in TR-FRET dilution buffer (Life Technologies). After a 30 minute incubation at room temperature, TR-FRET measurements were obtained on a BMG PHERAstar plate reader using LanthaScreen® filters and settings. A 16 point, 2-fold dilution series of each compound was tested in triplicate at each concentration and assays were also performed in triplicate.

LRRK2 A2016T/G2019S = biological target: T3, LRRK2 A2016T/G2019S (Homo sapiens, UniProt Q5S007, A2016T/G2019S); assay: Immunoprecipitation/Western analysis of LRRK2 phosphorylation in T-REx HEK293 cells expressing inhibitor desensitizing mutant; format: cell-based; conditions: for effect of desensitizing mutation A2016T/G2019S on compound-induced dephosphorylation (IP-Western): 20 µM, Figure 6 IRM
T3 construct: expressed in transfected cells
T3 sequence (Q5S007 whole entry A2016T/G2019S): as the sequence (Q5S007 whole entry G2019S) above, with A2016T counted along it
Procedure: as §1

[5] = Tocriscreen Mini library screen, SH-SY5Y G2019S, relative to LRRK2-IN-1 control

| Structure (SMILES) | %Inhibition Initial screen (LRRK2 G2019S [1]; [5]) [%] | IC50 [2] [µM] | Cellular TR-FRET Assay Max % Inhibition (LRRK2 G2019S [1]; SH-SY5Y G2019S) [%] | IC50 (LRRK2 G2019S [1]; SH-SY5Y G2019S) [µM] | effect on phosphorylation of Ser910, Ser935, Ser955 and Ser973 (IP-Western) (GFP-LRRK2 G2019S) | IC50 (LRRK2 G2019S [4]) [µM] | other results |
| --- | --- | --- | --- | --- | --- | --- | --- |
| O=C(CCCN1CCC2(CC1)C(=O)N(Cc1cccc(F)c1)CN2c1ccccc1)c1ccc(F)cc1.O=C(O)/C=C\C(=O)O [3′-fluorobenzylspiperone maleate] | 53 | – | – | – | – | – | – |
| CC(C)[C@H](CO)Nc1nc(Nc2cc(N)cc(Cl)c2)c2ncn(C(C)C)c2n1 [Aminopurvalanol A] | 56.2 | > 20 | 50 | 1.4 | – | – | – |
| O=C(O)/C=C\C(=O)O.O=C1/C(=C/c2ccccc2)C[C@@]2(O)[C@H]3Cc4ccc(O)c5c4[C@@]2(CCN3CC2CC2)[C@H]1O5 [BNTX maleate] | – | – | 88 | 4 | moderately reduced phosphorylation of all four residues | > 100 | %Inhibition Initial screen (LRRK2 G2019S [1]): 70% and 69.7%; IC50 [3]: > 20 µM; effect on LRRK2 activity in vitro (LRRK2 G2019S [4]): did not repress LRRK2 activity in vitro |
| O=C(NCCCNc1nc(Nc2cccc(NC(=O)N3CCCC3)c2)ncc1I)c1cccs1 [BX-795] | – | – | – | – | inhibited LRRK2 cellular phosphorylation | – | effect of desensitizing mutation A2016T/G2019S on compound-induced dephosphorylation (IP-Western) (LRRK2 A2016T/G2019S): rescued phosphorylation |
| CC(C)(C)c1ccc(S(=O)(=O)/C=C/C#N)cc1 [Bay 11-7085] | 97.5 | > 20 | 100 | 5.3 | moderately reduced phosphorylation of all four residues | > 100 | LRRK2 phosphorylation remaining, % of untreated G2019S (GFP-LRRK2 G2019S; 293 cells, LRRK2 G2019S): 50%; effect of desensitizing mutation A2016T/G2019S on compound-induced dephosphorylation (IP-Western) (LRRK2 A2016T/G2019S): did not appear to be changed; LRRK2 phosphorylation remaining, % of untreated G2019S (LRRK2 A2016T/G2019S; 293 cells, LRRK2 G2019S/A2016T): 50%; effect on LRRK2 activity in vitro (LRRK2 G2019S [4]): did not repress LRRK2 activity in vitro |
| Nc1nc(Nc2ccccc2)nc2c1ncn2[C@@H]1O[C@H](CO)[C@@H](O)[C@H]1O [CV1808] | 55 | – | – | – | – | – | – |
| CN(C)CCCn1cc(C2=C(c3c[nH]c4ccccc34)C(=O)NC2=O)c2ccccc21 [GF109203X] | – | – | – | – | – | – | dephosphorylation of Ser935 in library screen (LRRK2 G2019S [1]; SH-SY5Y G2019S): did not observe in vivo dephosphorylation of Ser935 |
| O=C(c1ccc(Nc2nccc(-c3cc4ccccc4s3)n2)cc1)N1CCC(N2CCCC2)CC1 [IKK 16] | 81.7 | > 20 | 82 | 1.3 | inhibited phosphorylation of Ser910, Ser935, Ser955 and Ser973 | 0.05 | effect of desensitizing mutation A2016T/G2019S on compound-induced dephosphorylation (IP-Western) (LRRK2 A2016T/G2019S): rescued phosphorylation |
| CCc1ccc(OCc2ccccc2C(=O)Nc2ccc3nc(C)cc(N)c3c2)cc1 [JTC 801] | 90.1 | 10 | 84 | 9.6 | moderately reduced phosphorylation of all four residues | > 100 | %Inhibition Initial screen (LRRK2 G2019S [1]; Tocriscreen Mini library screen, SH-SY5Y G2019S, relative to LRRK2-IN-1 control, listed as JTC801, 20 µM): 90%; effect on LRRK2 activity in vitro (LRRK2 G2019S [4]): did not repress LRRK2 activity in vitro |
| O=C1C(SCCO)=C(SCCO)C(=O)c2ccccc21 [NSC 95397] | 76.1 | – | 80 | 1.3 | moderately reduced phosphorylation of all four residues | 15 | IC50 [3]: 7.8 µM |
| O=C1C(Cl)=C(NCCN2CCOCC2)C(=O)c2ncccc21 [NSC 663284] | 59.1 | 2 | 45 | 5.8 | – | 0.48 | – |
| Cn1cc(C2=C(c3cn(CCCSC(=N)N)c4ccccc34)C(=O)NC2=O)c2ccccc21 [Ro31-8220] | – | – | – | – | – | – | dephosphorylation of Ser935 in library screen (LRRK2 G2019S [1]; SH-SY5Y G2019S): did not observe in vivo dephosphorylation of Ser935 |
| [O-][S+](c1ccccc1)c1ccc2nnnn2n1 (stereo not shown) [Ro 106-9920] | 69.8 | 20 | 76 | 7.6 | – | > 100 | suppression of LRRK2 phosphorylation on Ser935 (GFP-LRRK2 G2019S; HEK293 cells): approximately 50%; effect on LRRK2 activity in vitro (LRRK2 G2019S [4]): did not repress LRRK2 activity in vitro |
| O=C1NC(=O)c2c1c1c3ccccc3n3c1c1c2c2ccccc2n1C1CCC3O1 [SB 218078] | 55.3 | – | 54 | 9.5 | moderately reduced phosphorylation of all four residues | – | IC50 [3]: > 20 µM; effect of desensitizing mutation A2016T/G2019S on compound-induced dephosphorylation (IP-Western) (LRRK2 A2016T/G2019S): did not appear to be changed |
| NC(=O)Nc1sc(-c2ccc(F)cc2)cc1C(N)=O [TPCA-1] | 54.8 | – | 50 | 0.1 | – | – | IC50 [3]: > 20 µM |
| C[C@@H](N)[C@H]1CC[C@H](C(=O)Nc2ccncc2)CC1 [Y-27632] | 67.3 | > 20 | 69 | – | – | – | – |
